The values below come from US20050165024A1, “Urea derivatives as kinase modulators” (Ambit Biosciences Corporation, priority 2003, published 2005).

What is called Kd is the free concentration of one partner at which half of the binding sites on the other are occupied at equilibrium, for simple one-to-one binding. High values mean weaker binding, low ones tighter binding.

T3 sequence (O94804 36-294 limits assumed): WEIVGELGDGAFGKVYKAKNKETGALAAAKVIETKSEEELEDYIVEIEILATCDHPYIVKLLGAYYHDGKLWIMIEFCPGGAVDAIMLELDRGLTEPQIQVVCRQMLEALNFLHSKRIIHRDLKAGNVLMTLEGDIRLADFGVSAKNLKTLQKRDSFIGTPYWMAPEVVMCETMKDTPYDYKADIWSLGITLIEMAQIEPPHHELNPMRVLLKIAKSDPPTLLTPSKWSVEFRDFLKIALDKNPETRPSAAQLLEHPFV

The target in one assay is T1, MKNK2 (DKIN) (Homo sapiens, UniProt Q9HBH9).
T1 construct: (DKIN); made in house
T1 sequence (Q9HBH9 84-388 limits assumed): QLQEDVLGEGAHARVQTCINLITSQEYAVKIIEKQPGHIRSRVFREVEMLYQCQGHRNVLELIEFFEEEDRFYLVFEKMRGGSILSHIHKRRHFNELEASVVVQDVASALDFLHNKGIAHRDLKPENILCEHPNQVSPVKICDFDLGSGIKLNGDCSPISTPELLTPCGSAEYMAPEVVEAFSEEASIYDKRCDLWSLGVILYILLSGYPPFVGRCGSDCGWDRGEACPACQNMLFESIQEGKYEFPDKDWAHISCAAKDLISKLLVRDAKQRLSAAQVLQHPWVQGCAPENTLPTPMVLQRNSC
The experiment in a line: Binding constant (Kd) measurement, phage-displayed kinase competition binding assay: MKNK2. Conditions: Kd class symbols. From the text:
(§1) The term “ND” represents non-determined values.
In the case of `Cc1cnc(C(=O)Nc2ccc(NC(=O)Nc3cc(C(C)(C)C)on3)cc2)cn1`, the Kd lay in the range of 0.1 to 1 µM.

As to `CC(C)(C)c1cc(NC(=O)Nc2ccc(NC(=O)c3ccc4ncccc4c3)cc2)no1`, the Kd was 1 to 10 µM.

The compound `CC(C)(C)c1cc(NC(=O)Nc2ccc(NC(=O)c3cnnc4ccccc34)cc2)no1` showed a Kd of less than 0.1 µM.

With `CC(C)(C)c1cc(NC(=O)Nc2ccc(NC(=O)c3cccc4nsnc34)cc2)no1`, the Kd lay within 1 to 10 µM.

The compound `CC(C)(C)c1cc(NC(=O)Nc2ccc(NC(=O)c3cscn3)cc2)no1` registered a Kd of 0.1 to 1 µM.

For the compound `CC(C)(C)c1cc(NC(=O)Oc2ccc(NC(=O)c3nccnc3N)cc2)no1`, the Kd fell in the range of 0.1 to 1 µM.

The compound `Cc1cnc(C(=O)Nc2ccc(NC(=O)Nc3cc(C(C)(C)C)on3)cc2)c(C(=O)O)n1` came in with a Kd of 1 to 10 µM.

For `CC(C)(C)c1cc(NC(=O)Nc2ccc(Nc3nc(Cl)nc4[nH]cnc34)cc2)no1` [drawing 682], the Kd lay in the range of 1 to 10 µM.

`COc1cc2nc(Cl)nc(Nc3ccc(NC(=O)Nc4cc(C(C)(C)C)on4)cc3)c2cc1OC` [drawing 684] gave a Kd of 1 to 10 µM.

Consider `CC(C)(C)c1cc(NC(=O)Nc2ccc(Nc3ncnc4[nH]cnc34)cc2)no1` [drawing 686], for which the Kd is less than 0.1 µM.

Turning to `CC(C)(C)c1cc(NC(=O)Nc2ccc(NC(=O)c3ncccc3O)cc2)no1` [drawing 687], the Kd is less than 0.1 µM.

`CC(C)(C)c1cc(NC(=O)Nc2ccc(NC(=O)c3cnc4ccccc4c3)cc2)no1` [drawing 689] displayed a Kd of 1 to 10 µM.

The compound `CC(C)(C)c1cc(NC(=O)Nc2ccc(Nc3nc(N)nc4[nH]cnc34)cc2)no1` [drawing 691] yielded a Kd of less than 0.1 µM.

In turn, `COc1cc2ncnc(Nc3ccc(NC(=O)Nc4cc(C(C)(C)C)on4)cc3)c2cc1OC` [drawing 692] came in with a Kd of less than 0.1 µM.

In turn, `COc1cc(OC)nc(Oc2cccc(C(=O)Nc3ccc(NC(=O)Nc4cc(C(C)(C)C)on4)cc3)c2)n1` [drawing 693] displayed a Kd of 0.1 to 1 µM.

In the next assay the target is T2, p38-alpha(FKIN) (Homo sapiens, UniProt Q16539).
T2 construct: made in house
T2 sequence (Q16539 whole entry): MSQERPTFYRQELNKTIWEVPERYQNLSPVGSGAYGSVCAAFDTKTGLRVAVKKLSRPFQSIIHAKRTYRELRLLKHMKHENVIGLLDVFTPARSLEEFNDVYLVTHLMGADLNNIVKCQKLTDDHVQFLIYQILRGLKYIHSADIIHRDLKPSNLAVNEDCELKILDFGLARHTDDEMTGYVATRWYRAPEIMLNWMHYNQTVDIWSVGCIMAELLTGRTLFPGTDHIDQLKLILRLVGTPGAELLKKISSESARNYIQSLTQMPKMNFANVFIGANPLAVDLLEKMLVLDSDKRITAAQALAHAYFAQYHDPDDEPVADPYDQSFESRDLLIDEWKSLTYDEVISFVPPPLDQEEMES
Description: Binding constant (Kd) measurement, phage-displayed kinase competition binding assay: p38. To be noted: Kd class symbols.
Description: as §1
Take `Cc1ccc(NC(=O)Nc2cc(C(C)(C)C)on2)cc1`: the Kd was 1 to 10 µM.

In the case of `CC(C)(C)c1cc(NC(=O)Nc2ccc(O)cc2)no1`, the Kd was in the range of 1 to 10 µM.

Compound `CC(C)(C)c1cc(NC(=O)Nc2ccc(Cl)cc2)on1` yielded a dissociation constant (Kd) of 1 to 10 µM.

Take `COc1ccc(NC(=O)Nc2cc(C(C)(C)C)on2)cc1`: the dissociation constant (Kd) was in the range of 1 to 10 µM.

Consider `COc1ccc(NC(=O)Nc2cc(C(C)(C)C)no2)cc1`, for which the Kd was in the range of 1 to 10 µM.

`CC(C)(C)c1cc(NC(=O)Nc2ccc(Cl)cc2)no1`: the Kd was in the range of 1 to 10 µM.

In turn, `CC(C)(C)c1cc(NC(=O)Nc2ccc(Br)cc2F)on1` gave a Kd of 0.1 to 1 µM.

Consider `CC(C)(C)c1cc(NC(=O)Nc2ccc(OCCN3CCCCC3)c3ccccc23)no1`, for which the Kd was less than 0.1 µM.

Consider `CSc1ccc(NC(=O)Nc2cc(C(C)(C)C)no2)cc1`, for which the Kd was in the range of 1 to 10 µM.

`CSc1ccc(NC(=O)Nc2cc(C(C)(C)C)on2)cc1`: the Kd was in the range of 1 to 10 µM.

In the case of `COc1ccc(NC(=O)Nc2cc(C(C)(C)C)nn2-c2ccc(C)cc2)cc1`, the Kd lay in the range of 0.1 to 1 µM.

In turn, `Cc1ccc(-n2nc(C(C)(C)C)cc2NC(=O)Nc2ccc(Br)cc2C(F)(F)F)cc1` showed a Kd of 0.1 to 1 µM.

The compound `CC(C)(C)c1cc(NC(=O)NCc2cccc(Cl)c2)no1` displayed a Kd of 0.1 to 1 µM.

`Cc1ccc(-n2nc(C(C)(C)C)cc2NC(=O)Nc2cc(C(C)(C)C)on2)cc1` displayed a Kd of 0.1 to 1 µM.

Turning to `Cc1ccc(-n2nc(C(C)(C)C)cc2NC(=O)Nc2ccc(Cl)c(C(F)(F)F)c2)cc1`, the Kd is 0.1 to 1 µM.

Take `Cc1ccc(-n2nc(C(C)(C)C)cc2NC(=O)Nc2ccc(Cl)cc2)cc1`: the Kd was less than 0.1 µM.

`C[S+]([O-])c1ccc(NC(=O)Nc2cc(C(C)(C)C)on2)cc1` (stereo not drawn) showed a Kd of 1 to 10 µM.

`Cc1ccc(-n2nc(C(C)(C)C)cc2NC(=O)Nc2ccc(O)cc2)cc1` yielded a Kd of 0.1 to 1 µM.

With `O=C(Nc1ccccc1)Nc1cc(Cl)c([N+](=O)O)cc1O`, the Kd is 0.1 to 1 µM.

Consider `CC(C)(C)c1cc(NC(=O)Nc2ccccc2)no1`, for which the Kd lay in the range of 1 to 10 µM.

Compound `Cc1c(Cl)cccc1NC(=O)Nc1cc(C(C)(C)C)on1` displayed a Kd of 0.1 to 1 µM.

`Cc1ccc(-n2nc(C(C)(C)C)cc2NC(=O)Nc2ccc(OCc3ccccc3)cc2)cc1` came in with an equilibrium dissociation constant (Kd) of 0.1 to 1 µM.

Take `Cc1ccc(-n2nc(C(C)(C)C)cc2NC(=O)Nc2ccc(OCCN3CCOC(CO)C3)c3ccccc23)cc1` (stereo not drawn): the Kd was less than 0.1 µM.

In turn, `CC(C)(C)c1cc(NC(=O)Nc2ccc(NC(=O)c3cccnc3)cc2)no1` had a Kd of 0.1 to 1 µM.

Compound `NC(=O)c1cc(Oc2ccc(Nc3c(Nc4ccc(Cl)c(C(F)(F)F)c4)c(=O)c3=O)cc2)ccn1` yielded a Kd of 0.1 to 1 µM.

In turn, `Cn1nc(C(C)(C)C)cc1NC(=O)Nc1cccc2ccccc12` registered a Kd of 0.1 to 1 µM.

Compound `CC(C)(C)c1cc(NC(=O)Nc2ccc(NC(=O)c3cnc4ccccc4c3)cc2)no1` [drawing 680] displayed a Kd of 1 to 10 µM.

The next assay addresses T3, STK10(DKIN) (Homo sapiens, UniProt O94804).
T3 construct: STK10(DKIN); made in house
The experiment in a line: Binding constant (Kd) measurement, phage-displayed kinase competition binding assay: STK10. Conditions: Kd class symbols.
Description: as §1
`CC(C)(C)c1cc(NC(=O)Nc2ccc(NC(=O)c3nccnc3N)cc2)no1` had a dissociation constant (Kd) of 0.1 to 1 µM.

The compound `CC(C)(C)c1cc(NC(=O)Nc2ccc(N3C(=O)c4ccccc4C3=O)cc2)no1` came in with a Kd of less than 0.1 µM.

Compound `CC(C)(C)c1cc(NC(=O)Nc2ccc(NC(=O)c3ncccc3O)cc2)no1` [drawing 696] had a Kd of 0.1 to 1 µM.

Consider `CC(C)(C)c1cc(NC(=O)Nc2ccc(Nc3nc(Cl)nc4[nH]cnc34)cc2)no1` [drawing 697], for which the Kd fell in the range of 0.1 to 1 µM.

`COc1cc2ncnc(Nc3ccc(NC(=O)Nc4cc(C(C)(C)C)on4)cc3)c2cc1OC` [drawing 698] showed a Kd of less than 0.1 µM.

`COc1cc2nc(Cl)nc(Nc3ccc(NC(=O)Nc4cc(C(C)(C)C)on4)cc3)c2cc1OC` [drawing 699] returned a Kd of less than 0.1 µM.

Regarding `COc1cc(OC)nc(Oc2cccc(C(=O)Nc3ccc(NC(=O)Nc4cc(C(C)(C)C)on4)cc3)c2)n1` [drawing 700], the Kd was 1 to 10 µM.

Take `CC(C)(C)c1cc(NC(=O)Nc2ccc(Nc3ncnc4[nH]cnc34)cc2)no1` [drawing 701]: the Kd was less than 0.1 µM.

As to `CC(C)(C)c1cc(NC(=O)Nc2ccc(Nc3nc(N)nc4[nH]cnc34)cc2)no1` [drawing 703], the Kd is 0.1 to 1 µM.
